Structures can show the parent of a compound that is named as a salt.
What was measured:
[1] = test system: scopolamine induced learning and memory deficit; test: Morris water maze test, scopolamine induced learning and memory deficit in rats; assay type: in vivo, Sprague-Dawley male rats; conditions: for average time to locate the submerged platform: Day 1 of acquisition trials, whole group
Experimental: The Morris water maze test is a classical cognitive test for evaluation of spatial learning and memory in rodents. […] 60 Sprague-Dawley male rats were used in the present study. The animals were housed in cages in groups of four rats per cage. All rats were fed with food and water ad libitum. The testing apparatus can be described as follows. A circular pool was filled with water (24±1° C.) to the depth of 30 cm. […] Four start positions were at the perimeter of the pool: the first one in the first quadrant, the second one in the second quadrant, the third one in the third quadrant and the last one in the fourth quadrant. The rats were trained to escape from water by swimming to a hidden platform whose location was only identified using visual cues attached to the curtain around the pool. Visual cues had different colors and dimensions and were kept constant during the whole experiment. All rats were trained in the swimming pool for 60 seconds without the platform. […] The training procedure included 4 trials per day with 4 different and randomized starting positions. In each trial, the time of rat to reach the platform (escape latency) was recorded, and then the rat was allowed to stay on the platform for 15 seconds. […] The experimental group setting is described in Table 3. […] For practical reasons, the study was divided into two sessions (Table 4). Each session included 6 groups, and each group included 5 rats. Each session took 10 days to complete. […] On day 6, each rat was placed in the swimming pool with no platform to locate the platform site for 60 seconds. […] Any Maze software was used for video tracking and data collection during the whole acquisition trial and probe trial. In acquisition trial, escape latency was recorded. In probe trial, time spent in target and swimming speed was recorded. Data were analyzed and graphed by Graph Pad Prism 5.

[2] = test system: memory dysfunction of scopolamine-treated rats; conditions: Morris water maze test; cited from earlier work
[3] = Day 1, session 1, 250 mg/kg po + scopolamine 0.5 mg/kg ip
[4] = Day 1, session 2, 250 mg/kg po + scopolamine 0.5 mg/kg ip
[5] = Day 2, session 1, 250 mg/kg po + scopolamine 0.5 mg/kg ip
[6] = Day 2, session 2, 250 mg/kg po + scopolamine 0.5 mg/kg ip
[7] = Day 3, session 1, 250 mg/kg po + scopolamine 0.5 mg/kg ip
[8] = Day 3, session 2, 250 mg/kg po + scopolamine 0.5 mg/kg ip
[9] = Day 4, session 1, 250 mg/kg po + scopolamine 0.5 mg/kg ip
[10] = Day 4, session 2, 250 mg/kg po + scopolamine 0.5 mg/kg ip
[11] = Day 5, session 1, 250 mg/kg po + scopolamine 0.5 mg/kg ip
[12] = Day 5, session 2, 250 mg/kg po + scopolamine 0.5 mg/kg ip
[13] = Day 6, session 1, 250 mg/kg po + scopolamine 0.5 mg/kg ip on days 1-5
[14] = Day 6, session 2, 250 mg/kg po + scopolamine 0.5 mg/kg ip on days 1-5, in s

**Q.** Which “effect on learning and memory deficit induced by scopolamine, probe trials (in words)” value (“effect … probe trials (in words)” below) ([1]; 0.1 mg/kg, vs scopolamine only group) does the source give for `COc1cc2c(cc1OC)C(=O)C(CC1CCN(Cc3ccccc3)CC1)C2` (stereo not drawn) [Donepezil, Donepezil hydrochloride] here?
**A.** Its value is “significantly attenuated”.

**Q.** What about the “Latency to escape in acquisition trial” value ([1]; Day 1, session 1, 0.1 mg/kg ip + scopolamine 0.5 mg/kg ip) of the same compound?
**A.** The value was 48.52 ± 5.50 s.

**Q.** And the “Latency to escape in acquisition trial” value ([1]; Day 1, session 2, 0.1 mg/kg ip + scopolamine 0.5 mg/kg ip)?
**A.** Its value is 45.44 ± 5.40 s.

**Q.** And the “average time to locate the submerged platform” value (from here on “average time”) ([1]; 0.1 mg/kg ip + scopolamine)?
**A.** The value was 46.98 ± 3.67 s.

**Q.** What about the “Latency to escape in acquisition trial” value ([1]; Day 2, session 1, 0.1 mg/kg ip + scopolamine 0.5 mg/kg ip) of the same compound?
**A.** The value was 44.50 ± 2.48 s.

**Q.** And the “Latency to escape in acquisition trial” value ([1]; Day 2, session 2, 0.1 mg/kg ip + scopolamine 0.5 mg/kg ip)?
**A.** The value was 43.18 ± 7.85 s.

**Q.** What about the “Latency to escape in acquisition trial” value ([1]; Day 3, session 1, 0.1 mg/kg ip + scopolamine 0.5 mg/kg ip) of the same compound?
**A.** Its value is 35.92 ± 8.22 s.

**Q.** And the “Latency to escape in acquisition trial” value ([1]; Day 3, session 2, 0.1 mg/kg ip + scopolamine 0.5 mg/kg ip)?
**A.** Its value is 37.06 ± 4.26 s.

**Q.** What about the “Latency to escape in acquisition trial” value ([1]; Day 4, session 1, 0.1 mg/kg ip + scopolamine 0.5 mg/kg ip) of the same compound?
**A.** Its value is 36.04 ± 4.78 s.

**Q.** And the “Latency to escape in acquisition trial” value ([1]; Day 4, session 2, 0.1 mg/kg ip + scopolamine 0.5 mg/kg ip)?
**A.** The value was 34.20 ± 6.89 s.

**Q.** And the “Latency to escape in acquisition trial” value ([1]; Day 5, session 1, 0.1 mg/kg ip + scopolamine 0.5 mg/kg ip)?
**A.** Its value is 26.86 ± 3.09 s.

**Q.** And the “Latency to escape in acquisition trial” value ([1]; Day 5, session 2, 0.1 mg/kg ip + scopolamine 0.5 mg/kg ip)?
**A.** Its value is 30.50 ± 5.78 s.

**Q.** What about the “Time spent in target quadrant in probe trial” value (“Time spent in target quadrant” for short) ([1]; Day 6, session 1, 0.1 mg/kg ip + scopolamine 0.5 mg/kg ip on days 1-5) of the same compound?
**A.** The value was 18.84 ± 3.22 s.

**Q.** And the “Time spent in target quadrant” value ([1]; Day 6, session 2, 0.1 mg/kg ip + scopolamine 0.5 mg/kg ip on days 1-5, in s)?
**A.** Its value is 19.40 ± 1.09.

**Q.** For `C[C@@]12CC[C@@H]3[C@@](CC[C@H]4[C@@]3(C)CCC[C@@]4(C)C(=O)O)(CC1=O)C2` (single isomer, unassigned; ent-16) [Isosteviol, ent-16-ketobeyeran-19-oic acid], which “effect … probe trials (in words)” value ([1]; 80 mg/kg) is on record?
**A.** The value was “significantly attenuated”.

**Q.** What about the “effect … probe trials (in words)” value ([1]; 250 mg/kg) of the same compound?
**A.** The value was “not”.

**Q.** What about the “Latency to escape in acquisition trial” value ([1]; Day 1, session 1, 80 mg/kg po + scopolamine 0.5 mg/kg ip) of the same compound?
**A.** The value was 46.46 ± 4.50 s.

**Q.** And the “Latency to escape in acquisition trial” value [1, 3]?
**A.** Its value is 46.16 ± 2.48 s.

**Q.** What about the “Latency to escape in acquisition trial” value ([1]; Day 1, session 2, 80 mg/kg po + scopolamine 0.5 mg/kg ip) of the same compound?
**A.** The value was 45.20 ± 6.40 s.

**Q.** What about the “Latency to escape in acquisition trial” value [1, 4] of the same compound?
**A.** The value was 48.46 ± 4.49 s.

**Q.** What about the “average time” value ([1]; 80 mg/kg po + scopolamine) of the same compound?
**A.** The value was 45.83 ± 3.70 s.

**Q.** What about the “average time” value ([1]; 250 mg/kg po + scopolamine) of the same compound?
**A.** Its value is 47.31 ± 2.45 s.

**Q.** And the “Latency to escape in acquisition trial” value ([1]; Day 2, session 1, 80 mg/kg po + scopolamine 0.5 mg/kg ip)?
**A.** The value was 45.24 ± 7.87 s.

**Q.** What about the “Latency to escape in acquisition trial” value [1, 5] of the same compound?
**A.** Its value is 43.94 ± 5.18 s.

**Q.** And the “Latency to escape in acquisition trial” value ([1]; Day 2, session 2, 80 mg/kg po + scopolamine 0.5 mg/kg ip)?
**A.** The value was 41.88 ± 3.19 s.

**Q.** And the “Latency to escape in acquisition trial” value [1, 6]?
**A.** Its value is 50.76 ± 3.90 s.

**Q.** What about the “Latency to escape in acquisition trial” value ([1]; Day 3, session 1, 80 mg/kg po + scopolamine 0.5 mg/kg ip) of the same compound?
**A.** Its value is 40.42 ± 5.48 s.

**Q.** And the “Latency to escape in acquisition trial” value [1, 7]?
**A.** Its value is 48.62 ± 5.64 s.

**Q.** And the “Latency to escape in acquisition trial” value ([1]; Day 3, session 2, 80 mg/kg po + scopolamine 0.5 mg/kg ip)?
**A.** Its value is 36.04 ± 5.50 s.

**Q.** And the “Latency to escape in acquisition trial” value [1, 8]?
**A.** The value was 40.42 ± 4.57 s.

**Q.** And the “Latency to escape in acquisition trial” value ([1]; Day 4, session 1, 80 mg/kg po + scopolamine 0.5 mg/kg ip)?
**A.** The value was 37.84 ± 4.36 s.

**Q.** What about the “Latency to escape in acquisition trial” value [1, 9] of the same compound?
**A.** Its value is 44.36 ± 6.54 s.

**Q.** What about the “Latency to escape in acquisition trial” value ([1]; Day 4, session 2, 80 mg/kg po + scopolamine 0.5 mg/kg ip) of the same compound?
**A.** Its value is 38.74 ± 5.25 s.

**Q.** And the “Latency to escape in acquisition trial” value [1, 10]?
**A.** The value was 41.58 ± 6.33 s.

**Q.** What about the “Latency to escape in acquisition trial” value ([1]; Day 5, session 1, 80 mg/kg po + scopolamine 0.5 mg/kg ip) of the same compound?
**A.** Its value is 27.14 ± 4.30 s.

**Q.** And the “Latency to escape in acquisition trial” value [1, 11]?
**A.** The value was 41.44 ± 7.24 s.

**Q.** And the “Latency to escape in acquisition trial” value ([1]; Day 5, session 2, 80 mg/kg po + scopolamine 0.5 mg/kg ip)?
**A.** Its value is 33.38 ± 6.04 s.

**Q.** And the “Latency to escape in acquisition trial” value [1, 12]?
**A.** The value was 35.24 ± 7.74 s.

**Q.** And the “Time spent in target quadrant” value ([1]; Day 6, session 1, 80 mg/kg po + scopolamine 0.5 mg/kg ip on days 1-5)?
**A.** Its value is 19.80 ± 1.19 s.

**Q.** And the “Time spent in target quadrant” value [1, 13]?
**A.** Its value is 16.00 ± 2.37 s.

**Q.** And the “Time spent in target quadrant” value ([1]; Day 6, session 2, 80 mg/kg po + scopolamine 0.5 mg/kg ip on days 1-5, in s)?
**A.** The value was 17.28 ± 1.11.

**Q.** And the “Time spent in target quadrant” value [1, 14]?
**A.** Its value is 16.50 ± 1.61.

**Q.** What about the visible behavioral abnormalities ([1]; Morris water maze study) of the same compound?
**A.** Its visible behavioral abnormalities is “no visible behavioral abnormalities”.

**Q.** Which “average time” value ([1]; scopolamine 0.5 mg/kg ip alone) does the source give for `CN1[C@@H]2C[C@@H](OC(=O)[C@H](CO)c3ccccc3)C[C@H]1[C@@H]1O[C@@H]12` [Scopolamine] here?
**A.** The value was 46.11 ± 2.98 s.

**Q.** And the “latency to the submerged platform in acquisition trials (effect in words)” value ([1]; Day 5, scopolamine 0.5 mg/kg)?
**A.** The value was “significantly increased”.

**Q.** And the “Time spent in target quadrant” value ([1]; Day 6, session 1, scopolamine 0.5 mg/kg ip alone (0.5% MC po) on days 1-5)?
**A.** Its value is 15.70 ± 1.42 s.

**Q.** What about the “Time spent in target quadrant” value ([1]; Day 6, session 2, scopolamine 0.5 mg/kg ip alone (0.5% MC po) on days 1-5, in s) of the same compound?
**A.** Its value is 12.30 ± 1.24.

**Q.** And the “time to locate in target quadrant in probe trials (effect in words)” value ([1]; scopolamine 0.5 mg/kg)?
**A.** The value was “reduced”.

**Q.** What does the source list for `C=C1C[C@@]23CC[C@H]4[C@@](C)(CCC[C@@]4(C)C(=O)O[C@@H]4O[C@H](CO)[C@@H](O)[C@H](O)[C@H]4O)[C@@H]2CC[C@]1(O[C@@H]1O[C@H](CO)[C@@H](O)[C@H](O)[C@H]1O[C@@H]1O[C@H](CO)[C@@H](O)[C@H](O)[C@H]1O)C3` [Stevioside]?
**A.** effect in cognitive deficits of rats (in words) [2]: memory-preservative effect; effect on learning and memory deficit induced by scopolamine, probe trials (in words) ([1]; 250 mg/kg): significantly reversed; Latency to escape in acquisition trial [1, 3]: 44.98 ± 5.53 s; Latency to escape in acquisition trial [1, 4]: 46.48 ± 3.66 s; average time to locate the submerged platform ([1]; 250 mg/kg po + scopolamine): 45.73 ± 3.14 s; Latency to escape in acquisition trial [1, 5]: 45.78 ± 6.95 s; Latency to escape in acquisition trial [1, 6]: 40.44 ± 3.63 s; Latency to escape in acquisition trial [1, 7]: 44.80 ± 5.46 s; Latency to escape in acquisition trial [1, 8]: 39.46 ± 9.62 s; Latency to escape in acquisition trial [1, 9]: 41.74 ± 6.39 s; Latency to escape in acquisition trial [1, 10]: 35.78 ± 4.95 s; Latency to escape in acquisition trial [1, 11]: 30.86 ± 6.57 s; Latency to escape in acquisition trial [1, 12]: 31.08 ± 3.33 s; Time spent in target quadrant in probe trial [1, 13]: 20.78 ± 3.75 s; Time spent in target quadrant in probe trial [1, 14]: 21.10 ± 2.16
